# From PubChem BioAssay (NCI)
#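 All cell lines were grown in 96-well plates and treated with compound for 48 hours. TGI: concentration producing complete growth inhibition.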
# System: CAKI-1 renal
# Test: NCI anticancer screen, dose series, 48 h
row,Compound,TGI
1,C1C2CC3CC1CC(Nc1nc(NC45CC6CC(CC(C6)C4)C5)nc(NC45CC6CC(CC(C6)C4)C5)n1)(C2)C3,> 100 µM
2,COc1cc(/C=C2\C[C@H]3[C@@H]4CCc5cc(O)ccc5[C@H]4CC[C@]3(C)C2=O)cc(OC)c1OC,26.6 µM
3,COc1ccc(N2C(=O)CC(C3CC(C(C)(C)C)CCC3=O)C2=O)cc1 (stereo not given),> 100 µM
4,CC(=O)Nc1ccc(N2C(=O)/C(=C\c3cccc(Oc4ccccc4)c3)S(=O)(=O)C2c2ccccc2)cc1 (stereo not given),> 100 µM
5,O=c1cnn(C/C=C/CBr)c(=O)[nH]1,25.6 µM
6,CCCCS(=O)CCC(N)P(=O)(O)O (stereo not given),> 100 µM
7,O=C(O)CCC(=O)c1ccc[nH]1,> 100 µM

# System: UACC-62 melanoma
# Test: NCI anticancer screen, dose series, 48 h
row,Compound,TGI
1,C1C2CC3CC1CC(Nc1nc(NC45CC6CC(CC(C6)C4)C5)nc(NC45CC6CC(CC(C6)C4)C5)n1)(C2)C3,> 100 µM
2,COc1cc(/C=C2\C[C@H]3[C@@H]4CCc5cc(O)ccc5[C@H]4CC[C@]3(C)C2=O)cc(OC)c1OC,52.2 µM
3,COc1ccc(N2C(=O)CC(C3CC(C(C)(C)C)CCC3=O)C2=O)cc1 (stereo not given),> 100 µM
4,CC(=O)Nc1ccc(N2C(=O)/C(=C\c3cccc(Oc4ccccc4)c3)S(=O)(=O)C2c2ccccc2)cc1 (stereo not given),> 100 µM
5,CCCCS(=O)CCC(N)P(=O)(O)O (stereo not given),> 100 µM
6,O=C(O)CCC(=O)c1ccc[nH]1,> 100 µM

# System: UACC-257 melanoma
# Test: NCI anticancer screen, dose series, 48 h
row,Compound,TGI
1,C1C2CC3CC1CC(Nc1nc(NC45CC6CC(CC(C6)C4)C5)nc(NC45CC6CC(CC(C6)C4)C5)n1)(C2)C3,> 100 µM
2,COc1cc(/C=C2\C[C@H]3[C@@H]4CCc5cc(O)ccc5[C@H]4CC[C@]3(C)C2=O)cc(OC)c1OC,34.1 µM
3,COc1ccc(N2C(=O)CC(C3CC(C(C)(C)C)CCC3=O)C2=O)cc1 (stereo not given),> 100 µM
4,CC(=O)Nc1ccc(N2C(=O)/C(=C\c3cccc(Oc4ccccc4)c3)S(=O)(=O)C2c2ccccc2)cc1 (stereo not given),> 100 µM
5,O=c1cnn(C/C=C/CBr)c(=O)[nH]1,26.9 µM
6,CCCCS(=O)CCC(N)P(=O)(O)O (stereo not given),> 100 µM
7,O=C(O)CCC(=O)c1ccc[nH]1,> 100 µM

# System: SK-MEL-5 melanoma
# Test: NCI anticancer screen, dose series, 48 h
row,Compound,TGI
1,C1C2CC3CC1CC(Nc1nc(NC45CC6CC(CC(C6)C4)C5)nc(NC45CC6CC(CC(C6)C4)C5)n1)(C2)C3,> 42.8 µM
2,COc1cc(/C=C2\C[C@H]3[C@@H]4CCc5cc(O)ccc5[C@H]4CC[C@]3(C)C2=O)cc(OC)c1OC,38.4 µM
3,COc1ccc(N2C(=O)CC(C3CC(C(C)(C)C)CCC3=O)C2=O)cc1 (stereo not given),> 100 µM
4,CC(=O)Nc1ccc(N2C(=O)/C(=C\c3cccc(Oc4ccccc4)c3)S(=O)(=O)C2c2ccccc2)cc1 (stereo not given),> 100 µM
5,O=c1cnn(C/C=C/CBr)c(=O)[nH]1,26.6 µM
6,CCCCS(=O)CCC(N)P(=O)(O)O (stereo not given),> 100 µM
7,O=C(O)CCC(=O)c1ccc[nH]1,> 100 µM

# System: OVCAR-5 ovarian
# Test: NCI anticancer screen, dose series, 48 h
row,Compound,TGI
1,C1C2CC3CC1CC(Nc1nc(NC45CC6CC(CC(C6)C4)C5)nc(NC45CC6CC(CC(C6)C4)C5)n1)(C2)C3,> 100 µM
2,COc1cc(/C=C2\C[C@H]3[C@@H]4CCc5cc(O)ccc5[C@H]4CC[C@]3(C)C2=O)cc(OC)c1OC,38.6 µM
3,CC(=O)Nc1ccc(N2C(=O)/C(=C\c3cccc(Oc4ccccc4)c3)S(=O)(=O)C2c2ccccc2)cc1 (stereo not given),> 100 µM
4,O=c1cnn(C/C=C/CBr)c(=O)[nH]1,31.2 µM
5,CCCCS(=O)CCC(N)P(=O)(O)O (stereo not given),> 100 µM
6,O=C(O)CCC(=O)c1ccc[nH]1,> 100 µM

# System: SF-295 CNS
# Test: NCI anticancer screen, dose series, 48 h
row,Compound,TGI
1,C1C2CC3CC1CC(Nc1nc(NC45CC6CC(CC(C6)C4)C5)nc(NC45CC6CC(CC(C6)C4)C5)n1)(C2)C3,> 100 µM
2,COc1cc(/C=C2\C[C@H]3[C@@H]4CCc5cc(O)ccc5[C@H]4CC[C@]3(C)C2=O)cc(OC)c1OC,27.4 µM
3,CC(=O)Nc1ccc(N2C(=O)/C(=C\c3cccc(Oc4ccccc4)c3)S(=O)(=O)C2c2ccccc2)cc1 (stereo not given),> 100 µM
4,CCCCS(=O)CCC(N)P(=O)(O)O (stereo not given),> 100 µM
5,O=C(O)CCC(=O)c1ccc[nH]1,> 100 µM

# System: RXF 393 renal
# Test: NCI anticancer screen, dose series, 48 h
row,Compound,TGI
1,C1C2CC3CC1CC(Nc1nc(NC45CC6CC(CC(C6)C4)C5)nc(NC45CC6CC(CC(C6)C4)C5)n1)(C2)C3,> 100 µM
2,COc1cc(/C=C2\C[C@H]3[C@@H]4CCc5cc(O)ccc5[C@H]4CC[C@]3(C)C2=O)cc(OC)c1OC,24.1 µM
3,COc1ccc(N2C(=O)CC(C3CC(C(C)(C)C)CCC3=O)C2=O)cc1 (stereo not given),> 100 µM
4,CC(=O)Nc1ccc(N2C(=O)/C(=C\c3cccc(Oc4ccccc4)c3)S(=O)(=O)C2c2ccccc2)cc1 (stereo not given),> 100 µM
5,O=c1cnn(C/C=C/CBr)c(=O)[nH]1,31.9 µM
6,O=C(O)CCC(=O)c1ccc[nH]1,> 100 µM

# System: UO-31 renal
# Test: NCI anticancer screen, dose series, 48 h
row,Compound,TGI
1,C1C2CC3CC1CC(Nc1nc(NC45CC6CC(CC(C6)C4)C5)nc(NC45CC6CC(CC(C6)C4)C5)n1)(C2)C3,> 100 µM
2,COc1cc(/C=C2\C[C@H]3[C@@H]4CCc5cc(O)ccc5[C@H]4CC[C@]3(C)C2=O)cc(OC)c1OC,29.4 µM
3,COc1ccc(N2C(=O)CC(C3CC(C(C)(C)C)CCC3=O)C2=O)cc1 (stereo not given),> 100 µM
4,CC(=O)Nc1ccc(N2C(=O)/C(=C\c3cccc(Oc4ccccc4)c3)S(=O)(=O)C2c2ccccc2)cc1 (stereo not given),> 100 µM
5,O=c1cnn(C/C=C/CBr)c(=O)[nH]1,28.8 µM
6,CCCCS(=O)CCC(N)P(=O)(O)O (stereo not given),> 100 µM
7,O=C(O)CCC(=O)c1ccc[nH]1,> 100 µM

# System: M14 melanoma
# Test: NCI anticancer screen, dose series, 48 h
row,Compound,TGI
1,C1C2CC3CC1CC(Nc1nc(NC45CC6CC(CC(C6)C4)C5)nc(NC45CC6CC(CC(C6)C4)C5)n1)(C2)C3,> 100 µM
2,COc1cc(/C=C2\C[C@H]3[C@@H]4CCc5cc(O)ccc5[C@H]4CC[C@]3(C)C2=O)cc(OC)c1OC,37.7 µM
3,COc1ccc(N2C(=O)CC(C3CC(C(C)(C)C)CCC3=O)C2=O)cc1 (stereo not given),> 100 µM
4,CC(=O)Nc1ccc(N2C(=O)/C(=C\c3cccc(Oc4ccccc4)c3)S(=O)(=O)C2c2ccccc2)cc1 (stereo not given),> 100 µM
5,O=c1cnn(C/C=C/CBr)c(=O)[nH]1,35.9 µM
6,CCCCS(=O)CCC(N)P(=O)(O)O (stereo not given),> 100 µM
7,O=C(O)CCC(=O)c1ccc[nH]1,> 100 µM

# System: K-562 leukemia
# Test: NCI anticancer screen, dose series, 48 h
row,Compound,TGI
1,C1C2CC3CC1CC(Nc1nc(NC45CC6CC(CC(C6)C4)C5)nc(NC45CC6CC(CC(C6)C4)C5)n1)(C2)C3,> 100 µM
2,COc1cc(/C=C2\C[C@H]3[C@@H]4CCc5cc(O)ccc5[C@H]4CC[C@]3(C)C2=O)cc(OC)c1OC,24.8 µM
3,COc1ccc(N2C(=O)CC(C3CC(C(C)(C)C)CCC3=O)C2=O)cc1 (stereo not given),> 100 µM
4,CC(=O)Nc1ccc(N2C(=O)/C(=C\c3cccc(Oc4ccccc4)c3)S(=O)(=O)C2c2ccccc2)cc1 (stereo not given),> 100 µM
5,O=c1cnn(C/C=C/CBr)c(=O)[nH]1,70.6 µM
6,CCCCS(=O)CCC(N)P(=O)(O)O (stereo not given),> 100 µM
7,O=C(O)CCC(=O)c1ccc[nH]1,> 100 µM

# System: MOLT-4 leukemia
# Test: NCI anticancer screen, dose series, 48 h
row,Compound,TGI
1,C1C2CC3CC1CC(Nc1nc(NC45CC6CC(CC(C6)C4)C5)nc(NC45CC6CC(CC(C6)C4)C5)n1)(C2)C3,> 100 µM
2,COc1cc(/C=C2\C[C@H]3[C@@H]4CCc5cc(O)ccc5[C@H]4CC[C@]3(C)C2=O)cc(OC)c1OC,23.1 µM
3,COc1ccc(N2C(=O)CC(C3CC(C(C)(C)C)CCC3=O)C2=O)cc1 (stereo not given),> 100 µM
4,CC(=O)Nc1ccc(N2C(=O)/C(=C\c3cccc(Oc4ccccc4)c3)S(=O)(=O)C2c2ccccc2)cc1 (stereo not given),98.4 µM
5,O=c1cnn(C/C=C/CBr)c(=O)[nH]1,50.1 µM
6,CCCCS(=O)CCC(N)P(=O)(O)O (stereo not given),> 100 µM
7,O=C(O)CCC(=O)c1ccc[nH]1,> 100 µM

# System: KM12 colon
# Test: NCI anticancer screen, dose series, 48 h
row,Compound,TGI
1,C1C2CC3CC1CC(Nc1nc(NC45CC6CC(CC(C6)C4)C5)nc(NC45CC6CC(CC(C6)C4)C5)n1)(C2)C3,> 51.5 µM
2,COc1cc(/C=C2\C[C@H]3[C@@H]4CCc5cc(O)ccc5[C@H]4CC[C@]3(C)C2=O)cc(OC)c1OC,38.1 µM
3,COc1ccc(N2C(=O)CC(C3CC(C(C)(C)C)CCC3=O)C2=O)cc1 (stereo not given),> 100 µM
4,CC(=O)Nc1ccc(N2C(=O)/C(=C\c3cccc(Oc4ccccc4)c3)S(=O)(=O)C2c2ccccc2)cc1 (stereo not given),> 100 µM
5,O=c1cnn(C/C=C/CBr)c(=O)[nH]1,32.7 µM
6,CCCCS(=O)CCC(N)P(=O)(O)O (stereo not given),> 100 µM
7,O=C(O)CCC(=O)c1ccc[nH]1,> 100 µM

# System: MCF7 breast
# Test: NCI anticancer screen, dose series, 48 h
row,Compound,TGI
1,C1C2CC3CC1CC(Nc1nc(NC45CC6CC(CC(C6)C4)C5)nc(NC45CC6CC(CC(C6)C4)C5)n1)(C2)C3,> 100 µM
2,COc1cc(/C=C2\C[C@H]3[C@@H]4CCc5cc(O)ccc5[C@H]4CC[C@]3(C)C2=O)cc(OC)c1OC,> 100 µM
3,COc1ccc(N2C(=O)CC(C3CC(C(C)(C)C)CCC3=O)C2=O)cc1 (stereo not given),> 100 µM
4,CC(=O)Nc1ccc(N2C(=O)/C(=C\c3cccc(Oc4ccccc4)c3)S(=O)(=O)C2c2ccccc2)cc1 (stereo not given),> 100 µM
5,O=c1cnn(C/C=C/CBr)c(=O)[nH]1,36 µM
6,CCCCS(=O)CCC(N)P(=O)(O)O (stereo not given),> 100 µM
7,O=C(O)CCC(=O)c1ccc[nH]1,> 100 µM

# System: NCI/ADR-RES ovarian
# Test: NCI anticancer screen, dose series, 48 h
row,Compound,TGI
1,C1C2CC3CC1CC(Nc1nc(NC45CC6CC(CC(C6)C4)C5)nc(NC45CC6CC(CC(C6)C4)C5)n1)(C2)C3,> 100 µM
2,COc1cc(/C=C2\C[C@H]3[C@@H]4CCc5cc(O)ccc5[C@H]4CC[C@]3(C)C2=O)cc(OC)c1OC,39.5 µM
3,COc1ccc(N2C(=O)CC(C3CC(C(C)(C)C)CCC3=O)C2=O)cc1 (stereo not given),> 100 µM
4,CC(=O)Nc1ccc(N2C(=O)/C(=C\c3cccc(Oc4ccccc4)c3)S(=O)(=O)C2c2ccccc2)cc1 (stereo not given),> 100 µM
5,O=c1cnn(C/C=C/CBr)c(=O)[nH]1,58.1 µM
6,CCCCS(=O)CCC(N)P(=O)(O)O (stereo not given),> 100 µM
7,O=C(O)CCC(=O)c1ccc[nH]1,> 100 µM

# System: HCC-2998 colon
# Test: NCI anticancer screen, dose series, 48 h
row,Compound,TGI
1,C1C2CC3CC1CC(Nc1nc(NC45CC6CC(CC(C6)C4)C5)nc(NC45CC6CC(CC(C6)C4)C5)n1)(C2)C3,> 100 µM
2,COc1cc(/C=C2\C[C@H]3[C@@H]4CCc5cc(O)ccc5[C@H]4CC[C@]3(C)C2=O)cc(OC)c1OC,35.9 µM
